Patent US6897211B2, “Thienodibenzoazulene compounds as tumor necrosis factor inhibitors” (Pliva-Istrazivacki Institut d.o.o., priority 2000, dated 2005)

tested on: secretion of TNF-α and IL-1; experiment: investigated tests: TNF-α and IL-1 secretion in human PBMC and mouse peritoneal macrophages in vitro, LPS-induced TNF-α/IL-1 secretion in mice, writhing test, LPS-induced shock in mice; conditions: tests not specified per compound; active = IC-50 20 μM or lower (human PBMC), 10 μM or lower (mouse macrophages), 30% or higher TNF-α inhibition at 10 mg/kg p.o., analgetic activity same or better than acetyl salicylic acid, 40% or better survival at 30 mg/kg

SMILES | activity in at least two investigated tests
CN(C)CCCOCc1cc2c(s1)-c1ccccc1Oc1ccccc1-2.Cl [Example 1, Dimethyl-[3-(8-oxa-1-thia-dibenzo[e,h]azulene-2-ylmethoxy)-propyl]-amine hydrochloride] | activity in at least two investigated tests
Cl.c1ccc2c(c1)Oc1ccccc1-c1sc(COCCN3CCCC3)cc1-2 [Example 5, 1-[2-(8-oxa-1-thia-dibenzo[e,h]azulene-2-ylmethoxy)-ethyl]-pyrrolidine hydrochloride] | activity in at least two investigated tests
Cl.Fc1ccc2c(c1)-c1sc(COCCN3CCCCC3)cc1-c1ccccc1O2 [Example 19, 1-[2-(11-fluoro-8-oxa-1-thia-dibenzo[e,h]azulene-2-ylmethoxy)-ethyl]-piperidine hydrochloride] | activity in at least two investigated tests
CN(C)CCCOCc1cc2c(s1)-c1ccccc1Sc1ccccc1-2.Cl [Example 21, [3-(1,8-dithia-dibenzo[e,h]azulene-2-ylmethoxy)-propyl]-dimethylamine hydrochloride] | activity in at least two investigated tests

tested on: not given; experiment: not given; conditions: not given

SMILES | melting point [°C]
CN(C)CCOCc1cc2c(s1)-c1ccccc1Oc1ccccc1-2.Cl | 131 to 133
CN(C)CCCOCc1cc2c(s1)-c1cccc(Cl)c1Oc1ccccc1-2 [Example 6, [3-(9-chloro-8-oxa-1-thia-dibenzo[e,h]azulene-2-ylmethoxy)-propyl]-dimethyl-amine] | 124 to 128

Second part, the compound after the results:

melting point [°C] | SMILES
157 to 158 | Cl.c1ccc2c(c1)Oc1ccccc1-c1sc(COCCN3CCOCC3)cc1-2
117 to 123 | Cl.c1ccc2c(c1)Oc1ccccc1-c1sc(COCCN3CCCCC3)cc1-2
120 to 122 | CN(C)CCCOCc1cc2c(s1)-c1ccccc1Oc1ccccc1-2.Cl [Example 1, Dimethyl-[3-(8-oxa-1-thia-dibenzo[e,h]azulene-2-ylmethoxy)-propyl]-amine hydrochloride]
122 | CN(C)CCOCc1cc2c(s1)-c1cccc(Cl)c1Oc1ccccc1-2 [Example 7, [2-(9-chloro-8-oxa-1-thia-dibenzo[e,h]azulene-2-ylmethoxy)-ethyl]-dimethyl-amine]
